These results are taken from patent US20150224058A1, “FORMULATIONS OF FLIBANSERIN” (Sprout Pharmaceuticals Inc., priority 2008, published 2015).

As a reminder, the solubility is how much of the substance goes into solution per volume.

A short description of the data set: Solubility of flibanserin in aqueous media. The format is physicochemical. The following applies: aqueous buffer; in phosphate buffer at pH 5.0. The text has this:
This marginal solubility at higher pH-values of flibanserin makes it difficult to develop extended release dosage forms or in some case even immediate release dosage forms for the following reasons. There is a natural pH gradient from the acidity of the stomach where the pH of physiological fluids are typically around 1-2, through the weakly acidic duodenum to the virtually neutral environment of the small intestine where the pH is in the range of 5-8. There are however cases of non-acidic stomach conditions due to either low production of hydrochloric acid caused by the physiology of the patients (this percentage increases form about 2-10% in young patients to about 10 to 40% in elderly patients) or by coadministration of antacids such as basic agents, H2-blockers or proton pump inhibitors. In those cases dissolution of even immediate release formulations (IRE) may be incomplete in the stomach and absorption might be incomplete or at least delayed.
Within the meaning of the present invention, supersaturation occurs if the active ingredient remains in dissolved status at concentrations far above its saturation solubility in the same aqueous system. […]

Each structure is given as a SMILES string. In brackets after ≈: the same amount, converted by molar mass.

`O=c1[nH]c2ccccc2n1CCN1CCN(c2cccc(C(F)(F)F)c2)CC1` [Flibanserin, 1,3-dihydro-1-[2-[4-[3-(trifluoromethyl)phenyl]-1-piperazinyl]ethyl]-2H-benzimidazole-2-one] had a solubility of 10 µg/mL (≈ 25.6 µM).
